This passage reports melting point results from a melting point compilation (Tetko et al.; mined from patent text by program, amines drawn as free bases though some values may be those of a salt).

Each structure is given as a SMILES string.

For orientation: melting point means the temperature of the solid-liquid transition. Take `CC(=O)NC[C@H]1CN(c2ccc(N3C[C@@H]4C[C@H]3CO4)c(F)c2)C(=O)O1`: the melting point fell in the range of 60 to 65 °C.
Turning to `O=C1c2ccccc2-c2c1c1ccccc1c(=O)n2CCCCCNS(=O)(=O)c1ccccc1`, the melting point fell in the range of 194 to 195 °C.
In turn, `CCOC(=O)c1ccc(C(F)(F)F)c(Br)n1` registered a melting point of 40 to 40.5 °C.
`CC(C)(C)CC(=O)NC[C@H]1CN(c2ccc(N3CCC(=CC#N)CC3)c(F)c2)C(=O)O1`: the melting point lay within 210 to 212 °C.
`CCCCCCCCc1ccc(OCC(=O)Cn2ncc3ccccc32)cc1` yielded a melting point of 66 to 67 °C.
`CC1CC(=O)c2cccc(C(N)=S)c21` (centres undefined) registered a melting point of 198 to 200 °C.
`N#Cc1c(C(F)(F)F)nn(-c2c(Cl)cc(C(F)(F)F)cc2Cl)c1N(C(=O)C1CC1)C(=O)C1CC1` yielded a melting point of 126 to 127 °C.
For `Cc1cc(SCc2ccc(OCc3ccc(C(F)(F)F)cc3)cc2)c2c(c1OCC(=O)O)CCC2`, the melting point was in the range of 165 to 167 °C.
The same measure for `CC(=O)C1(C)CCCS1(=O)=O` (centres undefined): 47 to 48 °C; for `CCCCCCCCCCC[C@@H](C[C@@H]1OC(=O)[C@H]1CCCCCC)OC(=O)CC(=O)NC(C)C`: 59 °C.
The molecule `CCOC(=O)c1cn(-c2cc(NC(=O)OC(C)(C)C)c(F)cc2F)c2c(Cl)c(N)c(F)cc2c1=O` registered a melting point of 143 to 150 °C.
With `CCOC(=O)C1=C(COCCNc2nccs2)NC(C)=C(C(=O)OC)C1c1ccccc1Cl` (centres undefined), the melting point is 134 °C.
As to `CC(=O)OC1CSC(Oc2cccc(-c3ccc(F)cn3)c2)C(OC(C)=O)C1OC(C)=O` (centres undefined), the melting point stood at 113 °C.
With `CCOC(=O)NC(=S)Nc1nnc(-c2cc(C(C)(C)C)c(O)c(C(C)(C)C)c2)s1`, the melting point was above 250 °C.
In turn, `CCCc1sc(C#N)c2c1C(=O)CC(C)(C)C2` returned a melting point of 38 to 40 °C.
The same measure for `COC1C(O)CCC(O)(CSC)C1C1(C)OC1CC=C(C)C` (centres undefined): 52 to 53 °C.
The same measure for `Cc1cc(N)cnc1Oc1ccc(Cl)c(C(F)(F)F)c1`: 92 to 94 °C.
`COC(=O)c1nc(C#N)ccc1OCc1ccccc1` yielded a melting point of 104 to 105 °C.
Molecule `COc1ccc(-c2c(CBr)c3ccc(OC)cc3oc2=O)c(OC(C)=O)c1` registered a melting point of 132 to 133 °C.
For `CCOC(=O)C1=C(COCCOc2ncccn2)NC(C)=C(C(=O)OC)C1c1ccccc1Cl` (centres undefined), the melting point was 101 °C.
`CCCC(O)c1c(C)c(NC(=O)CC(C)(C)C)c(C)c2c1OCC2c1ccc(C(C)C)cc1` (centres undefined) came in with a melting point of 150 to 151 °C.
`CCOC(=O)c1ncn2c1[C@@H]1CCCN1C(=O)c1c(Br)cccc1-2` showed a melting point of 191 to 192 °C.
The molecule `O=[N+]([O-])N=C1SCCN1Cc1ccc(Cl)nc1` gave a melting point of 137 to 138 °C.
`CC(=O)Nc1cc2c(cc1C#N)C(Nc1ccc(C(=O)OC(C)(C)C)c(F)c1)CC2` (centres undefined) yielded a melting point of 172 to 173 °C.
The same measure for `CCOCc1cc2c(s1)CCCc1cc(=O)n(-c3ccc(C)cc3)nc1-2`: 92 to 93 °C; for `COC1CN(S(=O)(=O)c2ccc(Cl)c(C(=O)O)c2)CCC1O` (centres undefined): 170 to 174 °C; for `O=c1[nH]c2ncc(-c3ccc(-c4nnc[nH]4)cc3)nc2n1CCN1CCOCC1`: 295 to 297 °C.
In turn, `COCCN1C(C)=C(C(=O)OC)C(CCOC)(c2ccccc2Cl)C(C(=O)OC)=C1C` had a melting point of 120 to 121 °C.
On to `Cc1cc2c(-c3ccccc3Cl)c(NC(=O)Nc3ccccc3)c(=O)n(C)c2cc1C`, for which the melting point lay within 218 to 219 °C.
Then `Cc1cc2nc(NC(=O)CO)sc2cc1C`, with 206 to 208 °C; and `O=c1nc(-c2cccc(-c3ccccc3)n2)sc2ccccc12`, with 195 to 197 °C; and `CCC(Cc1c(I)cc(I)c(NC(=O)CCl)c1I)C(=O)O` (centres undefined), with 157 °C.
As for `CCOC(=O)c1ccc(COc2cc(O)c(C(C)=O)cc2CC)cc1O`, the melting point is 145 to 146 °C.
On to `CO[C@@H]1C=C2C=C3C(=C(C)C(=O)N3Cc3ccccc3)C[C@]2(C)[C@@H](C)[C@H]1O`, for which the melting point was 45 °C.
Regarding `CCN(CC)c1ccc(/C=C/C(=O)CC(=O)/C=C/c2ccc(OC)c(O)c2)c(O)c1`, the melting point was 101 to 108 °C.
Then `CCOC(=O)CC(=O)c1cc(F)c(Br)cc1F`, with 51 to 53 °C.
`Cc1nnc2n1-c1ccc(Br)cc1C(c1ccccc1F)=NC2` registered a melting point of 213 to 214 °C.
As to `COCc1cc([N+](=O)[O-])c(Cl)cc1C(=O)Cl`, the melting point fell in the range of 63 to 65 °C.
In turn, `COCCOc1nc2cc(-c3ccc(OC)cc3)nnc2c2ccccc12` displayed a melting point of 148 to 150 °C.
`CN1C(=O)CN(NC(=O)CN)C(c2ccccc2)c2cc(Cl)ccc21` (centres undefined) came in with a melting point of 173 to 175 °C.
In turn, `CNc1cnn(-c2cccnc2)c1Br` displayed a melting point of 77 to 79 °C.
Turning to `c1ccc(CN2CCN(c3nc4nccc(-c5cccnc5)n4n3)CC2)cc1`, the melting point fell in the range of 149 to 150 °C.
`CCCc1c(O)ccc2c1OC(C(=O)OC)CC2` (centres undefined): the melting point lay in the range of 51 to 53 °C.
Molecule `Oc1ccc2c(c1)OC1(CCCCCC1)O2` yielded a melting point of 80 to 82 °C.
Take `CC(CC(C(=O)N(C)C)(c1ccccc1)c1ccccc1)N1CCC(NC(=O)c2cnc[nH]2)C(O)C1` (centres undefined): the melting point was found to be 155 °C.
As to `CC(n1cncn1)C(O)(COc1ccc(F)cc1)C(C)(C)C` (centres undefined), the melting point was in the range of 85 to 100 °C.
`CC(C)(C)c1ccc(/C=C/C(=O)Nc2cccc(OCC(=O)O)c2)cc1` had a melting point of 166 to 172 °C.
In turn, `COc1cc2ncnc(N3CCN(C(=O)NCc4ccc(CO)cc4)CC3)c2cc1OC` yielded a melting point of 228 to 229 °C.
`CCCCCC1C=CC(c2ccc(OC)cc2)=CC1` (centres undefined) came in with a melting point of 55 °C.
In turn, `NCCCP(=O)(O)C1SCCS1` yielded a melting point of 272 to 274 °C.
`Cn1c(-c2ccc(N3CCOCC3)cc2)cnc1[C@H](Cc1ccccn1)N(C=O)c1nc2cc(Cl)ccc2s1` yielded a melting point of 96 to 99 °C.
Regarding `Cc1nc2cc3c(cc2c(=O)n1COC(=O)C(C)(C)C)C(=O)CC3`, the melting point lay in the range of 203 to 205 °C.
Turning to `COc1ccc(Nc2nc(C=O)cs2)cc1`, the melting point was in the range of 108 to 110 °C.
The same measure for `NC(=O)COc1ccc([N+](=O)[O-])cc1`: 153 to 155 °C.
For the molecule `O=C(O)COc1cccc2c1CCC(Cn1cc(C(c3ccccc3)c3ccccc3)ccc1=O)C2` (centres undefined), the melting point lay within 162 to 163 °C.
As for `COC(=O)c1sc(Cl)c(Cl)c1NC(C)=O`, the melting point was 136 to 138 °C.
`CS(=O)(=O)OCC[C@H](CCCCC(=O)O)OS(C)(=O)=O` gave a melting point of 54 to 55 °C.
On to `COc1ccc(-c2ccc3nnn(Cc4ccc5ncccc5c4)c3n2)cc1F`, for which the melting point was 187 to 190 °C.
The same measure for `Cc1nccn1CC#CCN1CCCC1=O`: 81 to 85 °C; for `Cc1nc(-c2ccccc2)nc(-c2cccc([N+](=O)[O-])c2)c1C(=O)O`: 208 to 209 °C.
The same measure for `Cc1cc2c(cc1C)-n1ccc(=O)nc1CC(c1ccc(-n3c(C)nc4cnccc43)cc1)=N2`: 192 to 194 °C; for `CCc1c(C(=O)OC)[nH]c(=O)c(CC(C)C)[n+]1[O-]`: 143 to 146 °C.
As to `FC(F)(F)c1cc(C(F)(F)F)n(-c2ccc(NCc3ccccc3Cl)cc2)n1`, the melting point is 240 °C.
The same measure for `Nc1ccc(-c2nc(-c3ccco3)no2)cc1`: 183 to 185 °C; for `CC(=O)c1cccc(NC(=O)NC2N=C(C(C)C)c3ccccc3N(CC(=O)N3CC4CCC(CC4)C3)C2=O)c1` (centres undefined): 138 to 140 °C; for `COc1ccc(OCC2CN(C(C)CO)C(=O)O2)cc1` (centres undefined): 62 to 67 °C.
The same measure for `CCOC(=O)c1c(C)nc(CCl)c(C(=O)OCC)c1-c1cccc([N+](=O)[O-])c1`: 76 to 78 °C; for `Nc1ncc(C#Cc2ccc(Cl)cc2)c(OCCOCCO)n1`: 142 to 143 °C.
In turn, `NC(=O)c1cc(C(=O)CN(Cc2ccccc2)Cc2ccccc2)ccc1OCCCCOC1CCCCO1` (centres undefined) displayed a melting point of 118 to 123 °C.
Take `Cn1cc(C(=O)NCc2ccc(Cl)cc2)c(=O)c2cc(CO)oc21`: the melting point lay in the range of 229 to 230 °C.
Then `CCc1[nH]c(=O)[nH]c1C(=O)c1ccc(C#N)cc1`, with 269 to 271 °C; and `CCC1(O)CC(=O)OCc2c1cc1n(c2=O)Cc2c-1nc1ccccc1c2Cc1ccccc1` (centres undefined), with above 250 °C; and `CSc1nc(Cl)c2ccsc2n1`, with 105 to 107 °C.
The same measure for `CCCOc1ccccc1C(=O)Nc1ccncc1C(N)=O`: 135 to 136 °C.
The same measure for `Cc1nc(-c2ccc(C(F)(F)F)cc2)sc1CSc1ccc2oc(C(=O)O)cc2c1`: 207 to 209 °C; for `COc1ccc(/C(C)=C/C(=O)O)cc1OC`: 73 to 74 °C.
The molecule `Brc1cccc(P(c2ccccc2)c2ccccc2)n1` had a melting point of 81 °C.
`CC(=O)ON1C(C)(C)CC(OC(=O)c2cccc(C(=O)OC3CC(C)(C)N(OC(C)=O)C(C)(C)C3)c2)CC1(C)C` showed a melting point of 98 to 101 °C.
Turning to `CCCc1c(OCC(O)COc2cc(N)c(C)cc2Cl)ccc(C(C)=O)c1O` (centres undefined), the melting point was in the range of 94 to 95 °C.
The same measure for `COc1ccc(NC(=O)c2ccccc2-c2cccc(F)c2)cc1`: 161 to 163 °C.
With `CSc1nc(N)nc(-c2ccccc2)c1-c1ccc(=O)n(C(C)C)n1`, the melting point was 221 to 222 °C.
Consider `CC(=O)Nc1ccc(-c2cccc(-c3nc(C(C)C)[nH]c3-c3cccc(C)n3)c2)cc1`, for which the melting point lay in the range of 140 to 145 °C.
The same measure for `Cc1nc2c([nH]1)CCCC2=O`: 229 °C; for `CCCn1cc2c(C3C(=O)Nc4ccc(Br)cc43)ncnc2n1` (centres undefined): above 300 °C.
In turn, `CCCCCCC[C@@H](O)[C@@H](NCc1ccccc1)C(=O)O` displayed a melting point of 197 to 199 °C.
The molecule `CC(=O)c1ccc(S(=O)(=O)Nc2nnn[nH]2)cc1` came in with a melting point of 150 to 151 °C.
`O=C(NCCSCc1cccc(Br)c1)c1c(Cl)cccc1Cl` registered a melting point of 74 to 76 °C.
On to `O=S(=O)(Nc1nccnc1OCc1ccc(CO)cc1)c1cccc(Cl)c1Cl`, for which the melting point was 160 to 161 °C.
Take `Cc1cc(=O)[nH]nc1-c1ccc(-c2ccc(F)cc2)cc1`: the melting point is 245 to 247 °C.
